The source made the active and inactive calls. The calls are words filed in the database; no cut-off is given here.
Tests used:
[1] = molecular target: Acetylcholinesterase (Homo sapiens) (UniProt P22303); experiment: Ratio of compound activity to curcumin activity for inhibition of acetylcholinesterase (unknown origin)-induced amyloid beta(1 to 42) aggregation
[2] = molecular target: Acetylcholinesterase (Electrophorus electricus) (UniProt O42275); experiment: Inhibition of electric eel acetylcholinesterase using acetylthiocholine as substrate up to 100 uM incubated for 15 mins followed by substrate addition measured for 2 mins by Ellman's method relative to control
Cholinesterase = Cholinesterase (Equus caballus, UniProt P81908)
Description: Inhibition of horse serum butyrylcholinesterase using butylthiocholine as substrate incubated for 15 mins followed by substrate addition measured for 2 mins by Ellman's method

Acetylcholinesterase = Acetylcholinesterase (Electrophorus electricus, UniProt O42275)
Description: Inhibition of electric eel acetylcholinesterase using acetylthiocholine as substrate incubated for 15 mins followed by substrate addition measured for 2 mins by Ellman's method

[3] = molecular target: Acetylcholinesterase (Homo sapiens) (UniProt P22303); experiment: Ratio of compound activity to tacrine activity for inhibition of acetylcholinesterase (unknown origin)-induced amyloid beta(1 to 42) aggregation
cells = conditions: Homo sapiens, SH-SY5Y, 48 h
Description: Cytotoxicity against human SH-SY5Y cells assessed as cell viability after 48 hrs by MTT assay

[4] = molecular target: Acetylcholinesterase (Electrophorus electricus) (UniProt O42275); experiment: Mixed-type inhibition of electric eel AChE using acetylthiocholine as substrate at 3.125 to 50 nM after 15 mins by Lineweaver-Burk plot analysis
[5] = Metal chelating activity of the compound assessed as formation of copper complex at 20 uM after 30 mins by UV-vis spectrophotometric analysis; format: functional
[6] = Metal chelating activity of the compound assessed as formation of iron complex at 20 uM after 30 mins by UV-vis spectrophotometric analysis; format: functional
[7] = Metal chelating activity of the compound assessed as formation of copper complex at 20 uM by molar ratio method; format: functional
[8] = Metal chelating activity of the compound assessed as formation of potassium complex at 20 uM after 30 mins by UV-vis spectrophotometric analysis; format: functional
[9] = molecular target: Acetylcholinesterase (Electrophorus electricus) (UniProt O42275); experiment: Mixed-type inhibition of electric eel AChE using acetylthiocholine as substrate at 0.125 to 2 nM after 15 mins by Lineweaver-Burk plot analysis
[10] = Metal chelating activity of the compound assessed as formation of sodium complex at 20 uM after 30 mins by UV-vis spectrophotometric analysis; format: functional
[11] = Metal chelating activity of the compound assessed as formation of zinc complex at 20 uM after 30 mins by UV-vis spectrophotometric analysis; format: functional
[12] = Metal chelating activity of the compound assessed as formation of calcium complex at 20 uM after 30 mins by UV-vis spectrophotometric analysis; format: functional
[13] = molecular target: Acetylcholinesterase (Electrophorus electricus) (UniProt O42275); experiment: Ratio of tacrine IC50 to compound IC50 for electric eel acetylcholinesterase
[14] = Metal chelating activity of the compound assessed as formation of magnesium complex at 20 uM after 30 mins by UV-vis spectrophotometric analysis; format: functional

Chain of Acetylcholinesterase (Electrophorus electricus) (O42275 24-633 limits assumed): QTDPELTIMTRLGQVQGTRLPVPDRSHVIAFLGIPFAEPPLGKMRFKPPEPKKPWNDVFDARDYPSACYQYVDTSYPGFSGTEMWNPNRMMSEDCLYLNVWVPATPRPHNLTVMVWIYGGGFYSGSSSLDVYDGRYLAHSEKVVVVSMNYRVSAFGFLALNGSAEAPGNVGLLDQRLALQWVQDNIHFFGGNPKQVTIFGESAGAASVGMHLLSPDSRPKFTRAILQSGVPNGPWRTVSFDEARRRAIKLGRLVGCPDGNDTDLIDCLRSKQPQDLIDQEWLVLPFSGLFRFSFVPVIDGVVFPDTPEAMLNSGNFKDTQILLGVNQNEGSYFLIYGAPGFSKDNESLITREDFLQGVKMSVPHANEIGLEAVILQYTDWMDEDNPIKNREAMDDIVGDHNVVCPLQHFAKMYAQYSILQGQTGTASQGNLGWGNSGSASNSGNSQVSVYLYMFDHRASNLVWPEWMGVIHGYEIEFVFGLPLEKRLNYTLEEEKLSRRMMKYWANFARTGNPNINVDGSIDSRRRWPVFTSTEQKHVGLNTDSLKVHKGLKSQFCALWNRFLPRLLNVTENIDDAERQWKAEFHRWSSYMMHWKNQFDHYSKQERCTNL
Chain of Cholinesterase (P81908 whole entry): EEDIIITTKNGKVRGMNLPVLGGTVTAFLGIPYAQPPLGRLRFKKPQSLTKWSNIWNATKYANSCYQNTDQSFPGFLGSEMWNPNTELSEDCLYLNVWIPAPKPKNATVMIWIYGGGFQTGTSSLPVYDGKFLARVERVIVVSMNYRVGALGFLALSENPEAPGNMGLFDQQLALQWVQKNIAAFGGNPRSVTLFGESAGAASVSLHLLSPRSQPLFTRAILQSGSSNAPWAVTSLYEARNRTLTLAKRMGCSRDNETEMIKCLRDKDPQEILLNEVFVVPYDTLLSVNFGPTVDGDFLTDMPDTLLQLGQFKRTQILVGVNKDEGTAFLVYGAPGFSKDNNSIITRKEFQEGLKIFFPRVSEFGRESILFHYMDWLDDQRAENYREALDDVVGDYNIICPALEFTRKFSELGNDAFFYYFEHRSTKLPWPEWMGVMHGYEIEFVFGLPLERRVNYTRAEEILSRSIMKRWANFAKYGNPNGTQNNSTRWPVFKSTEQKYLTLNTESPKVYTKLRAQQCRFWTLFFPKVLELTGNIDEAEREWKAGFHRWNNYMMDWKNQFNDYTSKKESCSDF
Chain of Acetylcholinesterase (O42275 whole entry): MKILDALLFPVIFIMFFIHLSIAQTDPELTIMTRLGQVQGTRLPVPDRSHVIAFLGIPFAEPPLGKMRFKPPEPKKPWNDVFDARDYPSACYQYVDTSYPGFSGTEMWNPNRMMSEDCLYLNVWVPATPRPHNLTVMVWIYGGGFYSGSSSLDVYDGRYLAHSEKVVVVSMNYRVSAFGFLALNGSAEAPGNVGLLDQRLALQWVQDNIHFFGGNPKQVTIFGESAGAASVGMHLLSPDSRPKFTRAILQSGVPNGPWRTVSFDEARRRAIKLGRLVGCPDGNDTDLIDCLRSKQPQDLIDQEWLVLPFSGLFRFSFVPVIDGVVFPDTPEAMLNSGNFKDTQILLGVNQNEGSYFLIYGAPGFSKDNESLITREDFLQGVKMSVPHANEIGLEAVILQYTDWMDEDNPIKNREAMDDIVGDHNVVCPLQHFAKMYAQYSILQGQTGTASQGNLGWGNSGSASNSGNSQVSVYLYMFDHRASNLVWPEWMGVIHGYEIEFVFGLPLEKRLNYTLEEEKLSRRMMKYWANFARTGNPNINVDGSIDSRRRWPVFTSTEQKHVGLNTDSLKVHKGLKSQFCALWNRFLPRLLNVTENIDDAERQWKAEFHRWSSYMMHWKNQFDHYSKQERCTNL
Chain of Acetylcholinesterase (Homo sapiens) (P22303 whole entry): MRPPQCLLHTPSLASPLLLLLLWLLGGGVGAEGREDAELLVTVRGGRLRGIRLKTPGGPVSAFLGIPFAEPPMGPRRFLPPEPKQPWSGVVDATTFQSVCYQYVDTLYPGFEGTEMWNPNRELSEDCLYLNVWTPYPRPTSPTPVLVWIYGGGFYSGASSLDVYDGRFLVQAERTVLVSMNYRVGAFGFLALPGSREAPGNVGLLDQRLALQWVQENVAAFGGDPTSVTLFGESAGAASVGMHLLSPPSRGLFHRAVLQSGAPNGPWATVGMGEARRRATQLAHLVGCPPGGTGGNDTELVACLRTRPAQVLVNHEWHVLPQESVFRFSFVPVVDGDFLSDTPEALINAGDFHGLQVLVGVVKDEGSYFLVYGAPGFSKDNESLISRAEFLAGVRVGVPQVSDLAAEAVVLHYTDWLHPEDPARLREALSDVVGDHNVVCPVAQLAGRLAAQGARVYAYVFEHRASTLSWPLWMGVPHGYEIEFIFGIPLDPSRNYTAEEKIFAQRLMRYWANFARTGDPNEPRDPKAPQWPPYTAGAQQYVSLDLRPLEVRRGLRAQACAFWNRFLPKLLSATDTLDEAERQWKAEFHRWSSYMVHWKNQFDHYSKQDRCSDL

SMILES | Ratio [1] | inhibition [2] [%] | IC50 (Cholinesterase) [µM] | IC50 (Acetylcholinesterase) [µM] | Ratio [3] | IC50 (cells) [µM] | other results
O=C(COc1cccnc1)Nc1ccc2nc3c4[nH]c5ccccc5c4ccn3c(=O)c2c1 | 2.2 | 20 | 7.3 | 0.00309 | 15.3 |  | 
Cn1cc[n+](CCC(=O)Nc2ccc3nc4c5[nH]c6ccccc6c5ccn4c(=O)c3c2)c1 | 2.2 | 20 | 7.02 | 0.0093 | 15.3 | > 100 | 
O=C(CN1CCCC1)Nc1ccc2nc3c4[nH]c5ccccc5c4ccn3c(=O)c2c1 | 2.2 | 20 | 14.4 | 0.0593 | 15.3 | 2.9 | 
O=C(CCN1CCCC1)Nc1ccc2nc3c4[nH]c5ccccc5c4ccn3c(=O)c2c1 | 2.2 | 20 | 14.9 | 0.0139 | 15.3 | 21.2 | inhibition [4]: Active
O=C(CCN1CCCCC1)Nc1ccc2nc3c4[nH]c5ccccc5c4ccn3c(=O)c2c1 | 2.2 | 20 | 24 | 0.051 | 15.3 | 5 | 
O=C(CCN1CCOCC1)Nc1ccc2nc3c4[nH]c5ccccc5c4ccn3c(=O)c2c1 | 2.2 | 20 | 27.6 | 0.0786 | 15.3 | 3.1 | 
CN1CCN(CCC(=O)Nc2ccc3nc4c5[nH]c6ccccc6c5ccn4c(=O)c3c2)CC1 | 2.2 | 20 | 28.9 | 0.141 | 15.3 | 13.3 | 
O=C(C[n+]1cccc(F)c1)Nc1ccc2nc3c4[nH]c5ccccc5c4ccn3c(=O)c2c1 | 2.2 | 20 | 1.86 | 0.0006 | 15.3 | > 100 | Activity [5]: Active; Activity [6]: Active; Activity [7]: Active; Activity [8]: inactive; inhibition [9]: Active; Activity [10]: inactive; Activity [11]: Active; Activity [12]: inactive; Ratio IC50 [13]: 160; Activity [14]: inactive
O=C(CCCN1CCCC1)Nc1ccc2nc3c4[nH]c5ccccc5c4ccn3c(=O)c2c1 | 2.2 | 20 | 18.5 | 0.0846 | 15.3 |  | 
O=C(CCc1ccccc1)Nc1ccc2nc3c4[nH]c5ccccc5c4ccn3c(=O)c2c1 | 2.2 | 20 | 26.1 | 0.108 | 15.3 |  | 
O=C(CN1CCCCC1)Nc1ccc2nc3c4[nH]c5ccccc5c4ccn3c(=O)c2c1 | 2.2 | 20 | 23.2 | 0.07 | 15.3 | 6.3 | 
Cn1cc[n+](CCCC(=O)Nc2ccc3nc4c5[nH]c6ccccc6c5ccn4c(=O)c3c2)c1 | 2.2 | 20 | 8.2 | 0.0117 | 15.3 |  | 
O=C(CC[n+]1ccccc1)Nc1ccc2nc3c4[nH]c5ccccc5c4ccn3c(=O)c2c1 | 2.2 | 20 | 4.29 | 0.0023 | 15.3 | > 100 | 
COc1cc(/C=C/C(=O)CC(=O)/C=C/c2ccc(O)c(OC)c2)ccc1O [CURCUMIN] |  |  |  |  |  | 35.6 | 
CCN(CC)CCC(=O)Nc1ccc2nc3c4[nH]c5ccccc5c4ccn3c(=O)c2c1 | 2.2 | 20 | 28.3 | 0.0641 | 15.3 | 12.4 | 
O=C(C[n+]1ccccc1)Nc1ccc2nc3c4[nH]c5ccccc5c4ccn3c(=O)c2c1 | 2.2 | 20 | 2.45 | 0.0008 | 15.3 | > 100 | Ratio IC50 [13]: 160

SMILES | Ratio [1] | inhibition [2] [%] | IC50 (Cholinesterase) [µM] | IC50 (Acetylcholinesterase) [µM] | Ratio [3] | IC50 (cells) [µM] | other results
O=C(CC[n+]1cccc(F)c1)Nc1ccc2nc3c4[nH]c5ccccc5c4ccn3c(=O)c2c1 | 2.2 | 20 | 3.49 | 0.0021 | 15.3 | > 100 | 
O=C(CN1CCOCC1)Nc1ccc2nc3c4[nH]c5ccccc5c4ccn3c(=O)c2c1 | 2.2 | 20 | 28.5 | 0.0878 | 15.3 | 9.9 | 
CCN(CC)CC(=O)Nc1ccc2nc3c4[nH]c5ccccc5c4ccn3c(=O)c2c1 | 2.2 | 20 | 24.1 | 0.0704 | 15.3 | 2.3 | 
O=C(CCNc1ccccc1)Nc1ccc2nc3c4[nH]c5ccccc5c4ccn3c(=O)c2c1 | 2.2 | 20 | 27.8 | 0.0875 | 15.3 |  | 
O=C(CCC[n+]1ccccc1)Nc1ccc2nc3c4[nH]c5ccccc5c4ccn3c(=O)c2c1 | 2.2 | 20 | 4.16 | 0.0039 | 15.3 |  | 
O=C(CNc1ccccc1)Nc1ccc2nc3c4[nH]c5ccccc5c4ccn3c(=O)c2c1 | 2.2 | 20 | 25.3 | 0.0779 | 15.3 |  | 
CN(C)CC(=O)Nc1ccc2nc3c4[nH]c5ccccc5c4ccn3c(=O)c2c1 | 2.2 | 20 | 26.5 | 0.0701 | 15.3 | 4.1 | 
Cn1cc[n+](CC(=O)Nc2ccc3nc4c5[nH]c6ccccc6c5ccn4c(=O)c3c2)c1 | 2.2 | 20 | 7.34 | 0.008 | 15.3 | > 100 | 
CN1CCN(CC(=O)Nc2ccc3nc4c5[nH]c6ccccc6c5ccn4c(=O)c3c2)CC1 | 2.2 | 20 | 29.1 | 0.158 | 15.3 | 8.6 | 
O=C(Cc1ccccc1)Nc1ccc2nc3c4[nH]c5ccccc5c4ccn3c(=O)c2c1 | 2.2 | 20 | 24.9 | 0.116 | 15.3 |  | 
C[N+]1(CCC(=O)Nc2ccc3nc4c5[nH]c6ccccc6c5ccn4c(=O)c3c2)CCCC1 | 2.2 | 20 | 17.1 | 0.137 | 15.3 | 19.1 | 
O=C(CCCc1ccccc1)Nc1ccc2nc3c4[nH]c5ccccc5c4ccn3c(=O)c2c1 | 2.2 | 20 | 24.6 | 0.136 | 15.3 |  | 
C[N+](C)(C)CCC(=O)Nc1ccc2nc3c4[nH]c5ccccc5c4ccn3c(=O)c2c1 | 2.2 | 20 | 37.2 | 0.197 | 15.3 | 29.2 | 
CN(C)CCC(=O)Nc1ccc2nc3c4[nH]c5ccccc5c4ccn3c(=O)c2c1 | 2.2 | 20 | 21.4 | 0.0561 | 15.3 | 5.5 | 
O=C(CCOc1cccnc1)Nc1ccc2nc3c4[nH]c5ccccc5c4ccn3c(=O)c2c1 | 2.2 | 20 | 6.43 | 0.0143 | 15.3 |  | 
